IC50 data for 29 compounds are collected here from US11649255B2, “Indazoles as hematopoietic progenitor kinase 1 (HPK1) inhibitors and methods using same” (1st Biotherapeutics, Inc., priority 2020, dated 2023).

Structures are written as SMILES. A value given as a limit tells only on which side of the number the result lay.

recombinant human HPK1, sequence (Q92918 whole entry): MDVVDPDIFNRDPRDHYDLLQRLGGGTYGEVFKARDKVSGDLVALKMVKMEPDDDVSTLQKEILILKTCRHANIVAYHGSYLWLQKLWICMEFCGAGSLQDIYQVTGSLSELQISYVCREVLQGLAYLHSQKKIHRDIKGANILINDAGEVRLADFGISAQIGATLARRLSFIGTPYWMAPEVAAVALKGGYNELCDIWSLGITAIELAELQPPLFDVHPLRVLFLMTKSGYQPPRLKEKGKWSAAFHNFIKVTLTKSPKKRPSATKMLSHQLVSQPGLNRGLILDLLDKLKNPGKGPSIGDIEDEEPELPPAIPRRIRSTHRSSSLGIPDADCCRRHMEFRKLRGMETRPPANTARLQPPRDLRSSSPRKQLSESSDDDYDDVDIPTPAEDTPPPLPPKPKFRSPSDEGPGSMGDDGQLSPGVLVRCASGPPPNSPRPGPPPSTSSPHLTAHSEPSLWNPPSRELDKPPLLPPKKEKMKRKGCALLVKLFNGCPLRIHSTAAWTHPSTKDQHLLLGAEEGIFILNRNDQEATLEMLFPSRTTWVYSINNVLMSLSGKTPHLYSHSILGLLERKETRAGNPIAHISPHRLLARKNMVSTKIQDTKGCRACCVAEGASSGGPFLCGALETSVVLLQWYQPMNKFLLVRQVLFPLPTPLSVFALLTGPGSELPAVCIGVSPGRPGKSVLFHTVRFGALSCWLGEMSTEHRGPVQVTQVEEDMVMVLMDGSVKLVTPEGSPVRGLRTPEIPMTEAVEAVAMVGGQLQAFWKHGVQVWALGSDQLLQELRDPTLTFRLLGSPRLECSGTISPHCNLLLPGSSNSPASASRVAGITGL

The test deals with recombinant human HPK1 (Homo sapiens (Human), UniProt Q92918). Kind of test: HPK1 kinase assay (ADP-Glo). As to conditions: 25 μM ATP, MBP substrate. It is filed as biochemical. The method, boiled down:
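Activity was read as ADP formed, detected by ADP-Glo luminescence after the reaction of 5 ng recombinant human HPK1 with MBP and ATP (stocks 0.5 μg/μl and 25 μM) for 40 min at 30 °C. Buffer was Tris pH 7.5 with MgCl2, BSA and DTT, with compound in 0.5% DMSO. IC50 came from inhibition curves.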
(ADP-Glo turns the ADP formed in a reaction into a luminescent signal.)
Regarding `Cc1c(F)c(OC(F)(F)F)c2[nH]ncc2c1-c1ccn2nc(NC(=O)[C@@H]3C[C@@H]3F)cc2c1` [Example 592, (1S,2S)-2-fluoro-N-(5-(6-fluoro-5-methyl-7-(trifluoromethoxy)-1H-indazol-4-yl)pyrazolo[1,5-a]pyridin-2-yl)cyclopropane-1-carboxamide], the IC50 was below 100 nM.

`CN(CCO)c1c(F)c(Cl)c(-c2ccc3nc(NC(=O)[C@@H]4C[C@@H]4F)sc3c2)c2cn[nH]c12` [Example 93, (1S,2S)-N-(6-(5-chloro-6-fluoro-7-((2-hydroxyethyl)(methyl)amino)-1H-indazol-4-yl)benzo[d]thiazol-2-yl)-2-fluorocyclopropanecarboxamide]: the IC50 is below 100 nM.

In the case of `CCOc1c(F)c(F)c2[nH]ncc2c1-c1ccc2nc(NC(=O)[C@@H]3C[C@@H]3F)cn2c1` [Example 357, (1S,2S)-N-(6-(5-ethoxy-6,7-difluoro-1H-indazol-4-yl)imidazo[1,2-a]pyridin-2-yl)-2-fluorocyclopropane-1-carboxamide], the IC50 is below 100 nM.

Turning to `C=CC(=O)Nc1cc(C)c(-c2ccc3nc(NC(=O)[C@@H]4C[C@@H]4F)cn3c2)c2cn[nH]c12` [Example 274, (1S,2S)-N-(6-(7-acrylamido-5-methyl-1H-indazol-4-yl)imidazo[1,2-a]pyridin-2-yl)-2-fluorocyclopropane-1-carboxamide], the IC50 was below 100 nM.

For `CC(=O)Nc1c(F)c(C)c(-c2ccc3nc(NC(=O)[C@@H]4C[C@@H]4F)sc3n2)c2cn[nH]c12` [Example 181, (1S,2S)-N-(5-(7-acetamido-6-fluoro-5-methyl-1H-indazol-4-yl)thiazolo[5,4-b]pyridin-2-yl)-2-fluorocyclopropane-1-carboxamide], the IC50 fell in the range of 101 to 500 nM.

With `CCc1c(F)c(F)c2[nH]ncc2c1-c1ccc2nc(NC(=O)[C@@H]3C[C@@H]3F)sc2c1` [Example 106, (1S,2S)-N-(6-(5-ethyl-6,7-difluoro-1H-indazol-4-yl)benzo[d]thiazol-2-yl)-2-fluorocyclopropane-1-carboxamide], the IC50 is below 100 nM.

With `CN(C)C(=O)c1ccn(-c2c(F)c(Cl)c(-c3ccc4nc(NC(=O)[C@@H]5C[C@@H]5F)cn4c3)c3cn[nH]c23)c1` [Example 400, 1-(5-chloro-6-fluoro-4-(2-((1S,2S)-2-fluorocyclopropane-1-carboxamido)imidazo[1,2-a]pyridin-6-yl)-1H-indazol-7-yl)-N,N-dimethyl-1H-pyrrole-3-carboxamide], the IC50 was below 100 nM.

On to `O=C(Nc1cn2cc(-c3c(Cl)c(F)c(F)c4[nH]ncc34)ccc2n1)[C@@H]1C[C@@H]1F` [Example 323, (1S,2S)-N-(6-(5-chloro-6,7-difluoro-1H-indazol-4-yl)imidazo[1,2-a]pyridin-2-yl)-2-fluorocyclopropane-1-carboxamide], for which the IC50 was below 100 nM.

With `O=C(Nc1cn2cc(-c3c(Br)ccc4[nH]ncc34)ccc2n1)[C@@H]1C[C@@H]1F` [Example 238, (1S,2S)-N-(6-(5-bromo-1H-indazol-4-yl)imidazo[1,2-a]pyridin-2-yl)-2-fluorocyclopropane-1-carboxamide], the half-inhibitory concentration (IC50) was below 100 nM.

For the compound `CCN(C)c1c(F)c(SC)c(-c2ccc3nc(NC(=O)[C@@H]4C[C@@H]4F)sc3n2)c2cn[nH]c12` [Example 218, (1S,2S)-N-(5-(7-(ethyl(methyl)amino)-6-fluoro-5-(methylthio)-1H-indazol-4-yl)thiazolo[5,4-b]pyridin-2-yl)-2-fluorocyclopropane-1-carboxamide], the IC50 was below 100 nM.

Turning to `CSc1c(F)cc2[nH]ncc2c1-c1ccn2nc(NC(=O)[C@H]3C[C@@H]3F)cc2c1` [Example 571, (1R,2S)-2-fluoro-N-(5-(6-fluoro-5-(methylthio)-1H-indazol-4-yl)pyrazolo[1,5-a]pyridin-2-yl)cyclopropane-1-carboxamide], the IC50 was below 100 nM.

Take `CC(C)Oc1c(F)c(Cl)c(-c2ccn3nc(NC(=O)[C@@H]4C[C@@H]4F)cc3c2)c2cn[nH]c12` [Example 650, (1S,2S)-N-(5-(5-chloro-6-fluoro-7-isopropoxy-1H-indazol-4-yl)pyrazolo[1,5-a]pyridin-2-yl)-2-fluorocyclopropane-1-carboxamide]: the IC50 was below 100 nM.

In the case of `O=C(Nc1nc2ccc(-c3c(Cl)c(F)c(N4CCC(O)C4)c4[nH]ncc34)cc2s1)[C@@H]1C[C@@H]1F` (stereo partly drawn) [Example 78, (1S,2S)-N-(6-(5-chloro-6-fluoro-7-(3-hydroxypyrrolidin-1-yl)-1H-indazol-4-yl)benzo[d]thiazol-2-yl)-2-fluorocyclopropane-1-carboxamide], the half-maximal inhibitory concentration (IC50) was 101 to 500 nM.

With `N#Cc1ccc2[nH]ncc2c1-c1ccc2nc(NC(=O)C3CC3)cn2c1` [Example 232, N-(6-(5-cyano-1H-indazol-4-yl)imidazo[1,2-a]pyridin-2-yl)cyclopropanecarboxamide], the IC50 is below 100 nM.

In the case of `Cc1c(F)c(C(=O)O)c2[nH]ncc2c1-c1ccn2nc(NC(=O)[C@@H]3C[C@@H]3F)cc2c1` [Example 549, 6-fluoro-4-(2-((1S,2S)-2-fluorocyclopropane-1-carboxamido)pyrazolo[1,5-a]pyridin-5-yl)-5-methyl-1H-indazole-7-carboxylic acid], the IC50 was above 1000 nM.

As to `CC(NC(=O)C1CCC1)c1c(F)c(Cl)c(-c2ccc3nc(NC(=O)[C@@H]4C[C@@H]4F)cn3c2)c2cn[nH]c12` (stereo partly drawn) [Example 430, N-(1-(5-chloro-6-fluoro-4-(2-((1S,2S)-2-fluorocyclopropane-1-carboxamido)imidazo[1,2-a]pyridin-6-yl)-1H-indazol-7-yl)ethyl)cyclobutanecarboxamide], the IC50 was below 100 nM.

For the compound `Cc1c(F)c(Br)c2[nH]ncc2c1-c1ccc2nc(NC(=O)[C@@H]3C[C@@H]3F)cn2c1` [Example 268, (1S,2S)-N-(6-(7-bromo-6-fluoro-5-methyl-1H-indazol-4-yl)imidazo[1,2-a]pyridin-2-yl)-2-fluorocyclopropane-1-carboxamide], the IC50 was below 100 nM.

For the compound `O=C(Nc1nc2ccc(-c3c(C(F)F)ccc4[nH]ncc34)cc2s1)[C@@H]1C[C@@H]1F` [Example 33, (1S,2S)-N-(6-(5-(difluoromethyl)-1H-indazol-4-yl)benzo[d]thiazol-2-yl)-2-fluorocyclopropane-1-carboxamide], the IC50 is 101 to 500 nM.

Take `Cc1c(F)c(C(F)F)c2[nH]ncc2c1-c1ccn2nc(NC(=O)[C@@H]3C[C@@H]3F)cc2c1` [Example 591, (1S,2S)-N-(5-(7-(difluoromethyl)-6-fluoro-5-methyl-1H-indazol-4-yl)pyrazolo[1,5-a]pyridin-2-yl)-2-fluorocyclopropane-1-carboxamide]: the IC50 was below 100 nM.

Take `CCc1c(F)c(N(C)C)c2[nH]ncc2c1-c1ccc2nc(NC(=O)[C@@H]3C[C@@H]3F)sc2c1` [Example 102, (1S,2S)-N-(6-(7-(dimethylamino)-5-ethyl-6-fluoro-1H-indazol-4-yl)benzo[d]thiazol-2-yl)-2-fluorocyclopropane-1-carboxamide]: the IC50 was below 100 nM.

`CCc1c(F)c(F)c2[nH]ncc2c1-c1ccc2nc(NC(=O)[C@@H]3C[C@@H]3F)sc2n1` [Example 176, (1S,2S)-N-(5-(5-ethyl-6,7-difluoro-1H-indazol-4-yl)thiazolo[5,4-b]pyridin-2-yl)-2-fluorocyclopropane-1-carboxamide]: the IC50 is below 100 nM.

With `Cc1c(F)c(C#N)c2[nH]ncc2c1-c1ccn2nc(NC(=O)[C@@H]3C[C@@H]3F)cc2c1` [Example 582, (1S,2S)-N-(5-(7-cyano-6-fluoro-5-methyl-1H-indazol-4-yl)pyrazolo[1,5-a]pyridin-2-yl)-2-fluorocyclopropane-1-carboxamide], the IC50 is below 100 nM.

Take `O=C(Nc1nc2ccc(-c3cc(-c4cccs4)cc4[nH]ncc34)cc2s1)C1CC1` [Example 22, N-(6-(6-(thiophen-2-yl)-1H-indazol-4-yl)benzo[d]thiazol-2-yl)cyclopropanecarboxamide]: the IC50 was above 1000 nM.

As to `CC(C)(C#N)Nc1c(F)c(Cl)c(-c2ccn3nc(NC(=O)[C@@H]4C[C@@H]4F)cc3c2)c2cn[nH]c12` [Example 638, (1S,2S)-N-(5-(5-chloro-7-((2-cyanopropan-2-yl)amino)-6-fluoro-1H-indazol-4-yl)pyrazolo[1,5-a]pyridin-2-yl)-2-fluorocyclopropane-1-carboxamide], the half-inhibitory concentration (IC50) is below 100 nM.

As for `CN(c1ncccn1)c1c(F)c(Cl)c(-c2ccn3nc(NC(=O)[C@@H]4C[C@@H]4F)cc3c2)c2cn[nH]c12` [Example 596, (1S,2S)-N-(5-(5-chloro-6-fluoro-7-(methyl(pyrimidin-2-yl)amino)-1H-indazol-4-yl)pyrazolo[1,5-a]pyridin-2-yl)-2-fluorocyclopropane-1-carboxamide], the half-inhibitory concentration (IC50) was below 100 nM.

As for `O=C(Nc1cc2cc(-c3c(Cl)c(F)c(C4CC(O)CO4)c4[nH]ncc34)ccn2n1)[C@@H]1C[C@@H]1F` (stereo partly drawn) [Example 658, (1S,2S)-N-(5-(5-chloro-6-fluoro-7-(4-hydroxytetrahydrofuran-2-yl)-1H-indazol-4-yl)pyrazolo[1,5-a]pyridin-2-yl)-2-fluorocyclopropane-1-carboxamide], the IC50 is below 100 nM.

For the compound `O=C(Nc1nc2ccc(-c3c(O)ccc4[nH]ncc34)cc2s1)C1CC1` [Example 27, N-(6-(5-hydroxy-1H-indazol-4-yl)benzo[d]thiazol-2-yl)cyclopropanecarboxamide], the IC50 is above 1000 nM.

In the case of `COC[C@H](C)c1c(F)c(Cl)c(-c2ccn3nc(NC(=O)[C@@H]4C[C@@H]4F)cc3c2)c2cn[nH]c12` [Example 655, (1S,2S)-N-(5-(5-chloro-6-fluoro-7-((R)-1-methoxypropan-2-yl)-1H-indazol-4-yl)pyrazolo[1,5-a]pyridin-2-yl)-2-fluorocyclopropane-1-carboxamide], the IC50 is below 100 nM.

With `COC[C@H](C)c1c(F)c(Cl)c(-c2ccc3nc(NC(=O)[C@@H]4C[C@@H]4F)cn3c2)c2cn[nH]c12` [Example 422, (1S,2S)-N-(6-(5-chloro-6-fluoro-7-((R)-1-methoxypropan-2-yl)-1H-indazol-4-yl)imidazo[1,2-a]pyridin-2-yl)-2-fluorocyclopropane-1-carboxamide], the IC50 was below 100 nM.

As a reminder, the IC50 is the concentration at which inhibition is half-maximal.
